Results as given in US11666658B2, “Rifamycin analogs and antibody-drug conjugates thereof” (Regeneron Pharmaceuticals, Inc., priority 2018, dated 2023).
≈ marks a conversion by molar mass, not a printed value.

Assays:
[1] = test system: intracellular S. aureus NRS384 in THP-1 macrophages; assay: Intracellular killing assay 2 (rifamycin analogs, S. aureus in THP-1 macrophages); format: cell-based, Staphylococcus aureus; details: Staphylococcus aureus, NRS384, 2 h; lowest concentration giving intracellular S. aureus below limit of detection (50 cfu/mL) in THP-1 macrophages; median of at least two experiments; read-out: S. aureus Intracellular killing MIC
Protocol: THP-1 monocytic cell line was grown in media (RMPI+10% FBS+1% Penicillin/Streptomycin), then seeded at a density of 1e5 cells/well in a 96 well plate and differentiated into macrophages for three days prior to infection using 200 nM PMA. An overnight culture of S. aureus NRS384 was grown in RPMI, washed twice with PBS and resuspended at 1e7 cfu/mL in PBS. THP-1 were washed with warm media (RMPI without FBS) to remove the Penicillin/Streptomycin and then infected with the S. aureus suspension at a multiplicity of infection of 10:1 (S. aureus: macrophages). Plates were spun at 300×g for 5 minutes to synchronize adhesion of the bacteria, then incubated at 37° C. for 2 hours. Free-floating bacteria were removed by washing 2× with warm media and remaining extracellular S. aureus were killed by addition of media containing gentamicin (50 ug/mL). […] The compounds were added in media containing 50 µg/mL gentamicin to prevent extracellular growth of S. aureus. After 2 hours, plates were washed 2× with warm RPMI without FBS, and 100 ul of THP-1 lysis buffer (0.1% Triton in PBS) was added to each well. S. aureus survival was enumerated by colony forming units through serial dilution and plating onto TSA.
The intracellular MIC value indicated represents the median value of at least two independent experiments, unless indicated otherwise.

S. aureus NRS384 = assay: Broth minimum inhibitory concentration (MIC) assay 2; format: cell-based, Staphylococcus aureus; details: Staphylococcus aureus; S. aureus NRS384 in TSB, 24 hours at 37° C., OD600; median of at least two independent experiments; read-out: S. aureus Broth MIC
Protocol: To test the potency of rifamycin analogs of the disclosure in vitro, a broth growth inhibition assay was developed. For the assay, S. aureus NRS384 was grown in Tryptic Soy Broth (TSB) overnight, then sub-cultured 1:50 in fresh TSB and grown for an additional two hours. The culture was then pelleted via centrifugation and washed twice in PBS. The culture was then diluted to 1×10^6 cfu/mL in TSB and 100 μL of the suspension was added per well to a 2 mL dilution plate in triplicate. […] The plates were sealed and incubated at 37° C. with shaking for 24 hours, then 150 μL of each sample was added to 96 well microtiter plates and the OD600 nm was read on a Spectramax i3 Minimax 300.
The broth MIC experiments were assessed in at least two independent experiments and the median value is captured below unless indicated otherwise.

| SMILES | MIC (S. aureus NRS384) | MIC [1] |
| --- | --- | --- |
| CO[C@H]1/C=C/O[C@@]2(C)Oc3c(C)c(O)c4c(=O)c(c5oc6cc(OCC7CCN(C)C7)cc(O)c6nc-5c4c3C2=O)NC(=O)/C(C)=C\C=C\[C@H](C)[C@H](O)[C@@H](C)[C@@H](O)[C@@H](C)[C@H](OC(C)=O)[C@@H]1C (some centres unmarked) [Analog 29a] | 0.00391 µM (≈ 0.00357 µg/mL) | 0.04 µM (≈ 0.0366 µg/mL) |
| CO[C@H]1/C=C/O[C@@]2(C)Oc3c(C)c(O)c4c(=O)c(c5oc6cc(OCC7CCN(C)CC7)cc(O)c6nc-5c4c3C2=O)NC(=O)/C(C)=C\C=C\[C@H](C)[C@H](O)[C@@H](C)[C@@H](O)[C@@H](C)[C@H](OC(C)=O)[C@@H]1C [Analog 29b] | 0.00391 µM (≈ 0.00363 µg/mL) | 0.04 µM (≈ 0.0371 µg/mL) |
| CO[C@H]1/C=C/O[C@@]2(C)Oc3c(C)c(O)c4c(=O)c(c5oc6cc(OCCN7CCCC7)cc(O)c6nc-5c4c3C2=O)NC(=O)/C(C)=C\C=C\[C@H](C)[C@H](O)[C@@H](C)[C@@H](O)[C@@H](C)[C@H](OC(C)=O)[C@@H]1C [Analog 29c] | 0.00391 µM (≈ 0.00357 µg/mL) | 0.04 µM (≈ 0.0366 µg/mL) |
| CO[C@H]1/C=C/O[C@@]2(C)Oc3c(C)c(O)c4c(=O)c(c5oc6cc(OCCN7CC8CCC7C8)cc(O)c6nc-5c4c3C2=O)NC(=O)/C(C)=C\C=C\[C@H](C)[C@H](O)[C@@H](C)[C@@H](O)[C@@H](C)[C@H](OC(C)=O)[C@@H]1C [Analog 29d] | 0.00391 µM (≈ 0.00368 µg/mL) | 0.04 µM (≈ 0.0376 µg/mL) |
| CO[C@H]1/C=C/O[C@@]2(C)Oc3c(C)c(O)c4c(=O)c(c5oc6cc(OCCN7CCN(C)CC7)cc(O)c6nc-5c4c3C2=O)NC(=O)/C(C)=C\C=C\[C@H](C)[C@H](O)[C@@H](C)[C@@H](O)[C@@H](C)[C@H](OC(C)=O)[C@@H]1C [Analog 29e] | 0.0156 µM (≈ 0.0147 µg/mL) | 0.04 µM (≈ 0.0377 µg/mL) |
| CO[C@H]1/C=C/O[C@@]2(C)Oc3c(C)c(O)c4c(=O)c(c5oc6cc(OCCOCCN(C)C)cc(O)c6nc-5c4c3C2=O)NC(=O)/C(C)=C\C=C\[C@H](C)[C@H](O)[C@@H](C)[C@@H](O)[C@@H](C)[C@H](OC(C)=O)[C@@H]1C [Analog 29f] | 0.0156 µM (≈ 0.0145 µg/mL) | 0.2 µM (≈ 0.186 µg/mL) |
| CO[C@H]1/C=C/O[C@@]2(C)Oc3c(C)c(O)c4c(=O)c(c5oc6cc(OCCN7CCOCC7)cc(O)c6nc-5c4c3C2=O)NC(=O)/C(C)=C\C=C\[C@H](C)[C@H](O)[C@@H](C)[C@@H](O)[C@@H](C)[C@H](OC(C)=O)[C@@H]1C [Analog 29g] | 0.00391 µM (≈ 0.00364 µg/mL) | 0.2 µM (≈ 0.186 µg/mL) |
| CO[C@H]1/C=C/O[C@@]2(C)Oc3c(C)c(O)c4c(=O)c(c5oc6cc(OCCN(C)c7ccccn7)cc(O)c6nc-5c4c3C2=O)NC(=O)/C(C)=C\C=C\[C@H](C)[C@H](O)[C@@H](C)[C@@H](O)[C@@H](C)[C@H](OC(C)=O)[C@@H]1C [Analog 29h] | 0.0625 µM (≈ 0.0594 µg/mL) | 1 µM (≈ 0.951 µg/mL) |

The next lines start with results.

| MIC (S. aureus NRS384) | SMILES | MIC [1] |
| --- | --- | --- |
| 0.00244 µM (≈ 0.0022 µg/mL) | CO[C@H]1/C=C/O[C@@]2(C)Oc3c(C)c(O)c4c(=O)c(c5oc6cc(OCCNC(C)=O)cc(O)c6nc-5c4c3C2=O)NC(=O)/C(C)=C\C=C\[C@H](C)[C@H](O)[C@@H](C)[C@@H](O)[C@@H](C)[C@H](OC(C)=O)[C@@H]1C [Analog 29i] | 0.2 µM (≈ 0.18 µg/mL) |
| 0.000977 µM (≈ 0.000895 µg/mL) | CO[C@H]1/C=C/O[C@@]2(C)Oc3c(C)c(O)c4c(=O)c(c5oc6cc(OCCN(C)C(C)=O)cc(O)c6nc-5c4c3C2=O)NC(=O)/C(C)=C\C=C\[C@H](C)[C@H](O)[C@@H](C)[C@@H](O)[C@@H](C)[C@H](OC(C)=O)[C@@H]1C [Analog 29j] | 0.04 µM (≈ 0.0366 µg/mL) |
| 0.0625 µM (≈ 0.0511 µg/mL) | CO[C@H]1/C=C/O[C@@]2(C)Oc3c(C)c(O)c4c(=O)c(c5oc6cc(O)cc(O)c6nc-5c4c3C2=O)NC(=O)/C(C)=C\C=C\[C@H](C)[C@H](O)[C@@H](C)[C@@H](O)[C@@H](C)[C@H](OC(C)=O)[C@@H]1C [Analog 29k] | > 1 µM |
| 0.25 µM (≈ 0.222 µg/mL) | CO[C@H]1/C=C/O[C@@]2(C)Oc3c(C)c(O)c4c(=O)c(c5oc6cc(OCCNCCN)ccc6nc-5c4c3C2=O)NC(=O)/C(C)=C\C=C\[C@H](C)[C@H](O)[C@@H](C)[C@@H](O)[C@@H](C)[C@H](OC(C)=O)[C@@H]1C [Analog 35] | > 1 µM |
| 0.0625 µM (≈ 0.0545 µg/mL) | CO[C@H]1/C=C/O[C@@]2(C)Oc3c(C)c(O)c4c(=O)c(c5oc6ccc(OCCN(C)C)cc6nc-5c4c3C2=O)NC(=O)/C(C)=C\C=C\[C@H](C)[C@H](O)[C@@H](C)[C@@H](O)[C@@H](C)[C@H](OC(C)=O)[C@@H]1C [Analog 38] | 1 µM (≈ 0.872 µg/mL) |
